Results published in ChEMBL document CHEMBL4308841, “Synthesis, in vitro antiproliferative activity, and kinase inhibitory effects of pyrazole-containing diarylureas and diarylamides” (Eur J Med Chem, 2018).

How the values were obtained:
HOP-62 [1] = assay: Growth inhibition of human HOP62 cells assessed as cell growth at 0.1 uM incubated for 48 hrs by sulforhodamine B assay relative to control; type: functional; details: HOP-62, 48 h, read-out: Activity
OVCAR-5 = assay: Growth inhibition of human OVCAR5 cells assessed as cell growth at 1 uM incubated for 48 hrs by sulforhodamine B assay relative to control; type: functional; details: OVCAR-5, 48 h, read-out: Activity
SK-MEL-5 = assay: Growth inhibition of human SK-MEL-5 cells assessed as cell growth at 1 uM incubated for 48 hrs by sulforhodamine B assay relative to control; type: functional; details: SK-MEL-5, 48 h, read-out: Activity
HCC 2998 [2] = assay: Growth inhibition of human HCC2998 cells assessed as cell growth at 1 uM incubated for 48 hrs by sulforhodamine B assay relative to control; type: functional; details: HCC 2998, 48 h, read-out: Activity
HCC 2998 [3] = assay: Growth inhibition of human HCC2998 cells incubated for 48 hrs by sulforhodamine B assay; type: functional, cell-based; details: HCC 2998, 48 h
HCC 2998 [4] = assay: Growth inhibition of human HCC2998 cells assessed as cell growth at 0.1 uM incubated for 48 hrs by sulforhodamine B assay relative to control; type: functional; details: HCC 2998, 48 h, read-out: Activity
MCF7 = assay: Growth inhibition of human MCF7 cells assessed as cell growth at 0.1 uM incubated for 48 hrs by sulforhodamine B assay relative to control; type: functional; details: MCF7, 48 h, read-out: Activity
DU-145 = assay: Growth inhibition of human DU145 cells assessed as cell growth at 100 uM incubated for 48 hrs by sulforhodamine B assay relative to control; type: functional; details: DU-145, 48 h, read-out: Activity
BT-549 = assay: Growth inhibition of human BT549 cells assessed as cell growth at 0.01 uM incubated for 48 hrs by sulforhodamine B assay relative to control; type: functional; details: BT-549, 48 h, read-out: Activity
RXF 393 = assay: Growth inhibition of human RXF393 cells assessed as cell growth at 1 uM incubated for 48 hrs by sulforhodamine B assay relative to control; type: functional; details: RXF 393, 48 h, read-out: Activity
SK-OV-3 = assay: Growth inhibition of human SKOV3 cells assessed as cell growth at 1 uM incubated for 48 hrs by sulforhodamine B assay relative to control; type: functional; details: SK-OV-3, 48 h, read-out: Activity
M14 = assay: Growth inhibition of human M14 cells assessed as cell growth at 1 uM incubated for 48 hrs by sulforhodamine B assay relative to control; type: functional; details: M14, 48 h, read-out: Activity
CAKI-1 = assay: Growth inhibition of human Caki1 cells incubated for 48 hrs by sulforhodamine B assay; type: functional, cell-based; details: CAKI-1, 48 h
NCI/ADR-RES = assay: Growth inhibition of human NCI/ADR-RES cells assessed as cell growth at 1 uM incubated for 48 hrs by sulforhodamine B assay relative to control; type: functional; details: read-out: Activity
SF-268 = assay: Growth inhibition of human SF268 cells incubated for 48 hrs by sulforhodamine B assay; type: functional, cell-based; details: SF-268, 48 h
COLO 205 [5] = assay: Growth inhibition of human COLO205 cells assessed as cell growth at 100 uM incubated for 48 hrs by sulforhodamine B assay relative to control; type: functional; details: COLO 205, 48 h, read-out: Activity
NCI-H226 = assay: Growth inhibition of human NCI-H226 cells assessed as cell growth at 100 uM incubated for 48 hrs by sulforhodamine B assay relative to control; type: functional; details: NCI-H226, 48 h, read-out: Activity
OVCAR-8 [6] = assay: Growth inhibition of human OVCAR8 cells assessed as cell growth at 0.1 uM incubated for 48 hrs by sulforhodamine B assay relative to control; type: functional; details: OVCAR-8, 48 h, read-out: Activity
KM12 = assay: Growth inhibition of human KM12 cells assessed as cell growth at 1 uM incubated for 48 hrs by sulforhodamine B assay relative to control; type: functional; details: KM12, 48 h, read-out: Activity
UACC-257 = assay: Growth inhibition of human UACC257 cells assessed as cell growth at 0.01 uM incubated for 48 hrs by sulforhodamine B assay relative to control; type: functional; details: UACC-257, 48 h, read-out: Activity
SN12C = assay: Growth inhibition of human SN12C cells assessed as cell growth at 100 uM incubated for 48 hrs by sulforhodamine B assay relative to control; type: functional; details: read-out: Activity
HL-60(TB) = assay: Growth inhibition of human HL-60(TB) cells assessed as cell growth at 1 uM incubated for 48 hrs by sulforhodamine B assay relative to control; type: functional; details: HL-60, 48 h, read-out: Activity
COLO 205 [7] = assay: Growth inhibition of human COLO205 cells assessed as cell growth at 0.1 uM incubated for 48 hrs by sulforhodamine B assay relative to control; type: functional; details: COLO 205, 48 h, read-out: Activity
COLO 205 [8] = assay: Growth inhibition of human COLO205 cells assessed as cell growth at 1 uM incubated for 48 hrs by sulforhodamine B assay relative to control; type: functional; details: COLO 205, 48 h, read-out: Activity
HOP-62 [9] = assay: Growth inhibition of human HOP62 cells assessed as cell growth at 1 uM incubated for 48 hrs by sulforhodamine B assay relative to control; type: functional; details: HOP-62, 48 h, read-out: Activity
OVCAR-8 [10] = assay: Growth inhibition of human OVCAR8 cells assessed as cell growth at 100 uM incubated for 48 hrs by sulforhodamine B assay relative to control; type: functional; details: OVCAR-8, 48 h, read-out: Activity
A498 = assay: Growth inhibition of human A498 cells assessed as cell growth at 0.1 uM incubated for 48 hrs by sulforhodamine B assay relative to control; type: functional; details: A498, 48 h, read-out: Activity
A549 = assay: Growth inhibition of human A549/ATCC cells assessed as cell growth at 0.1 uM incubated for 48 hrs by sulforhodamine B assay relative to control; type: functional; details: A549, 48 h, read-out: Activity
UO-31 = assay: Growth inhibition of human UO31 cells assessed as cell growth at 0.01 uM incubated for 48 hrs by sulforhodamine B assay relative to control; type: functional; details: UO-31, 48 h, read-out: Activity
CCRF-CEM = assay: Growth inhibition of human CCRF-CEM cells assessed as cell growth at 0.01 uM incubated for 48 hrs by sulforhodamine B assay relative to control; type: functional; details: read-out: Activity
TK-10 = assay: Growth inhibition of human TK10 cells assessed as cell growth at 10 uM incubated for 48 hrs by sulforhodamine B assay relative to control; type: functional; details: TK-10, 48 h, read-out: Activity
HT-29 = assay: Growth inhibition of human HT-29 cells assessed as cell growth at 10 uM incubated for 48 hrs by sulforhodamine B assay relative to control; type: functional; details: HT-29, 48 h, read-out: Activity
[11] = read-out: LC50 (the source's name)
[12] = read-out: pLC50 (the source's name) (converted)

Structure (SMILES): O=C(Nc1cccc(-n2cc(-c3ccncc3)c(-c3cc(O)cc(Cl)c3)n2)c1)Nc1ccc(Cl)c(Cl)c1
- growth at 0.1 µM (HOP-62 [1]): 97%
- growth at 1 µM (OVCAR-5): 56%
- growth at 1 µM (SK-MEL-5): 86%
- growth at 1 µM (HCC 2998 [2]): 96%
- GI50 (HCC 2998 [3]; read-out: GI50): 2.93 µM
- CC50 (HCC 2998 [3]; [11]): 7.51 µM
- TGI (HCC 2998 [3]; read-out: TGI): 89.9 µM
- GI50 (HCC 2998 [3]; read-out: pGI50 (converted)): 2.95 µM
- CC50 (HCC 2998 [3]; [12]): 77.6 µM
- TGI (HCC 2998 [3]; read-out: pTGI (converted)): 8.91 µM
- growth at 0.1 µM (HCC 2998 [4]): 110%
- growth at 0.1 µM (MCF7): 97%
- growth at 100 µM (DU-145): -31%
- growth at 0.01 µM (BT-549): 94%
- growth at 1 µM (RXF 393): 38%
- growth at 1 µM (SK-OV-3): 110%
- growth at 1 µM (M14): 72%
- GI50 (CAKI-1; read-out: GI50): 2.21 µM
- CC50 (CAKI-1; [11]): > 100 µM
- TGI (CAKI-1; read-out: TGI): 70.1 µM
- GI50 (CAKI-1; read-out: pGI50 (converted)): 2.19 µM
- CC50 (CAKI-1; [12]): > 100 µM
- TGI (CAKI-1; read-out: pTGI (converted)): 7.08 µM
- growth at 1 µM (NCI/ADR-RES): 90%
- GI50 (SF-268; read-out: GI50): 3.22 µM
- CC50 (SF-268; [11]): > 100 µM
- TGI (SF-268; read-out: TGI): 32.6 µM
- GI50 (SF-268; read-out: pGI50 (converted)): 3.24 µM
- CC50 (SF-268; [12]): > 100 µM
- TGI (SF-268; read-out: pTGI (converted)): 33.1 µM
- growth at 100 µM (COLO 205 [5]): -88%
- growth at 100 µM (NCI-H226): -41%
- growth at 0.1 µM (OVCAR-8 [6]): 97%
- growth at 1 µM (KM12): 72%
- growth at 0.01 µM (UACC-257): 96%
- growth at 100 µM (SN12C): -15%
- growth at 1 µM (HL-60(TB)): 106%
- growth at 0.1 µM (COLO 205 [7]): 103%
- growth at 1 µM (COLO 205 [8]): 101%
- growth at 1 µM (HOP-62 [9]): 97%
- growth at 100 µM (OVCAR-8 [10]): -38%
- growth at 0.1 µM (A498): 94%
- growth at 0.1 µM (A549): 99%
- growth at 0.01 µM (UO-31): 93%
- growth at 0.01 µM (CCRF-CEM): 96%

Structure (SMILES): COc1cc(Cl)cc(-c2nn(-c3cccc(NC(=O)Nc4cccc(C(F)(F)F)c4)c3)cc2-c2ccncc2)c1
- growth at 0.1 µM (HOP-62 [1]): 97%
- growth at 1 µM (OVCAR-5): 88%
- growth at 1 µM (SK-MEL-5): 80%
- growth at 1 µM (HCC 2998 [2]): 98%
- GI50 (HCC 2998 [3]; read-out: GI50): 3.47 µM
- CC50 (HCC 2998 [3]; [11]): 90.1 µM
- TGI (HCC 2998 [3]; read-out: TGI): 14 µM
- GI50 (HCC 2998 [3]; read-out: pGI50 (converted)): 3.47 µM
- CC50 (HCC 2998 [3]; [12]): 89.1 µM
- TGI (HCC 2998 [3]; read-out: pTGI (converted)): 14.1 µM
- growth at 0.1 µM (HCC 2998 [4]): 98%
- growth at 0.1 µM (MCF7): 102%
- growth at 100 µM (DU-145): 7%
- growth at 0.01 µM (BT-549): 107%
- growth at 1 µM (RXF 393): 68%
- growth at 1 µM (SK-OV-3): 103%
- growth at 10 µM (TK-10): 23.4%
- growth at 1 µM (M14): 64%
- GI50 (CAKI-1; read-out: GI50): 1.29 µM
- CC50 (CAKI-1; [11]): > 100 µM
- TGI (CAKI-1; read-out: TGI): 52 µM
- GI50 (CAKI-1; read-out: pGI50 (converted)): 1.29 µM
- CC50 (CAKI-1; [12]): > 100 µM
- TGI (CAKI-1; read-out: pTGI (converted)): 8.91 µM
- growth at 1 µM (NCI/ADR-RES): 65%
- GI50 (SF-268; read-out: GI50): 2.56 µM
- CC50 (SF-268; [11]): > 100 µM
- TGI (SF-268; read-out: TGI): 17.1 µM
- GI50 (SF-268; read-out: pGI50 (converted)): 2.57 µM
- CC50 (SF-268; [12]): > 100 µM
- TGI (SF-268; read-out: pTGI (converted)): 17 µM
- growth at 10 µM (HT-29): 5.75%
- growth at 100 µM (COLO 205 [5]): -95%
- growth at 100 µM (NCI-H226): -22%
- growth at 0.1 µM (OVCAR-8 [6]): 99%
- growth at 1 µM (KM12): 38%
- growth at 0.01 µM (UACC-257): 90%
- growth at 100 µM (SN12C): -20%
- growth at 1 µM (HL-60(TB)): 81%
- growth at 0.1 µM (COLO 205 [7]): 101%
- growth at 1 µM (COLO 205 [8]): 79%
- growth at 1 µM (HOP-62 [9]): 85%
- growth at 100 µM (OVCAR-8 [10]): -43%
- growth at 0.1 µM (A498): 92%
- growth at 0.1 µM (A549): 96%
- growth at 0.01 µM (UO-31): 91%
- growth at 0.01 µM (CCRF-CEM): 98%
